Laboratory results from PubChem BioAssay AID330 (DTP/NCI, 2004).
“And” between values parts separate entries of the source, which are not always exact repeats. Equal entries are not always repeated. Inconclusive results and toxic doses are left out. The calls were made as follows: active = survival T/C of 150% or more; inactive = T/C below 125% in these data.

Test system: P388 leukemia ip, CD2F1 mice, survival T/C
Test: NCI In Vivo Anticancer Drug Screen. Data for tumor model P388 Leukemia (intraperitoneal) in CD2F1 (CDF1) mice
Details: endpoint: median survival time, higher = longer survival
Procedure, shortened: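 Mice carrying the transplanted tumor received test compound or vehicle. Survival was recorded in each group, and the value is the treated-group measurement divided by that of the vehicle-treated control group.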

[1] = dose: 60.0 mg/kg/injection, schedule: Q01DX005 (ip), vehicle: Klucel (hydroxypropylcellulose) (HPC)
[2] = dose: 120.0 mg/kg/injection, schedule: Q01DX005 (ip), vehicle: Klucel (hydroxypropylcellulose) (HPC)
[3] = dose: 240.0 mg/kg/injection, schedule: Q01DX005 (ip), vehicle: Klucel (hydroxypropylcellulose) (HPC)
[4] = dose: 50.0 mg/kg/injection, schedule: Q01DX009 (ip), vehicle: saline with Tween-80
[5] = dose: 100.0 mg/kg/injection, schedule: Q01DX009 (ip), vehicle: saline with Tween-80
[6] = dose: 200.0 mg/kg/injection, schedule: Q01DX009 (ip), vehicle: saline with Tween-80
[7] = dose: 60.0 mg/kg/injection, schedule: Q01DX005 (ip), vehicle: saline
[8] = dose: 120.0 mg/kg/injection, schedule: Q01DX005 (ip), vehicle: saline
[9] = dose: 240.0 mg/kg/injection, schedule: Q01DX005 (ip), vehicle: saline
[10] = dose: 60.0 mg/kg/injection, schedule: Q01DX005 (ip), vehicle: saline with Tween-80
[11] = dose: 25.0 mg/kg/injection, schedule: Q01DX009 (ip), vehicle: saline with Tween-80
[12] = dose: 50.0 mg/kg/injection, schedule: Q01DX005 (ip), vehicle: saline with Tween-80
[13] = dose: 100.0 mg/kg/injection, schedule: Q01DX005 (ip), vehicle: saline with Tween-80
[14] = dose: 100.0 mg/kg/injection, schedule: Q04DX003 (ip), vehicle: saline with Tween-80

Measured: T/C

S=C(N/N=C/c1ccc(Cl)s1)NC12CC3CC(CC(C3)C1)C2
inactive: dose: 30.0 mg/kg/injection, schedule: Q01DX005 (ip), vehicle: Klucel (hydroxypropylcellulose) (HPC) 87 % of control | [1] 93 % of control | [2] 102 % of control | [3] 100 % of control

CCOC(=O)/C=C(/C)Sc1cc(O)ccc1O
inactive: [4] 102 % of control | [5] 111 % of control | [6] 109 % of control

c1ccc2c(SCCCCSc3c4ccccc4nc4ccccc34)c3ccccc3nc2c1
inactive: [7] 113 % of control | [8] 98 % of control | [9] 89 % of control

CC(C)(C)N1OC2C=CC1CC2O (configuration not stated) (tested in a mixture with another compound)
inactive: dose: 25.0 mg/kg/injection, schedule: Q01DX001 (ip), vehicle: Klucel (hydroxypropylcellulose) (HPC) 113 % of control | dose: 50.0 mg/kg/injection, schedule: Q01DX001 (ip), vehicle: Klucel (hydroxypropylcellulose) (HPC) 114 % of control | dose: 100.0 mg/kg/injection, schedule: Q01DX001 (ip), vehicle: Klucel (hydroxypropylcellulose) (HPC) 107 % of control

C=C1C(=O)C23OC2C1CCC(=O)C1(C)CC[C@H](OC(C)=O)C(C)(C)[C@H]1CC3O (some centres not stated)
inactive: dose: 5.0 mg/kg/injection, schedule: Q01DX005 (ip), vehicle: Klucel (hydroxypropylcellulose) (HPC) 104 % of control | dose: 10.0 mg/kg/injection, schedule: Q01DX005 (ip), vehicle: Klucel (hydroxypropylcellulose) (HPC) 109 % of control | dose: 20.0 mg/kg/injection, schedule: Q01DX005 (ip), vehicle: Klucel (hydroxypropylcellulose) (HPC) 111 % of control | dose: 40.0 mg/kg/injection, schedule: Q01DX005 (ip), vehicle: Klucel (hydroxypropylcellulose) (HPC) 110 % of control and 114 % of control

O=C(O)c1c(Cl)c(Cl)c(Cl)c(Cl)c1Cl
inactive: [5] 95 % of control | [6] 100 % of control | dose: 400.0 mg/kg/injection, schedule: Q01DX009 (ip), vehicle: saline with Tween-80 113 % of control

COCc1ccccc1-n1nccc1S(C)=O (configuration not stated)
inactive: [10] 106 % of control | dose: 120.0 mg/kg/injection, schedule: Q01DX005 (ip), vehicle: saline with Tween-80 98 % of control | dose: 240.0 mg/kg/injection, schedule: Q01DX005 (ip), vehicle: saline with Tween-80 106 % of control

CCCC(=O)C(CC)C1(C(=O)OC)NC(=S)NC(=O)C1C#N (configuration not stated)
inactive: [7] 98 % of control | [8] 105 % of control | [9] 98 % of control

c1ccc2c(c1)cnc1c3ccccc3nn21
inactive: dose: 50.0 mg/kg/injection, schedule: Q01DX009 (ip), vehicle: Klucel (hydroxypropylcellulose) (HPC) 102 % of control | dose: 100.0 mg/kg/injection, schedule: Q01DX009 (ip), vehicle: Klucel (hydroxypropylcellulose) (HPC) 96 % of control | dose: 200.0 mg/kg/injection, schedule: Q01DX009 (ip), vehicle: Klucel (hydroxypropylcellulose) (HPC) 103 % of control

COc1ccc(/C=C/c2ccnc3ccccc23)cc1
inactive: dose: 6.25 mg/kg/injection, schedule: Q01DX009 (ip), vehicle: saline with Tween-80 100 % of control | dose: 12.5 mg/kg/injection, schedule: Q01DX009 (ip), vehicle: saline with Tween-80 104 % of control | [11] 108 % of control

O=C1C=C(SCCCC(=O)N2CCOCC2)C(=O)c2ccccc21
inactive: dose: 6.25 mg/kg/injection, schedule: Q04DX003 (ip), vehicle: Klucel (hydroxypropylcellulose) (HPC) 107 % of control | dose: 12.5 mg/kg/injection, schedule: Q04DX003 (ip), vehicle: Klucel (hydroxypropylcellulose) (HPC) 104 % of control

O=C(O)/C(Br)=C(/Br)C(=O)O
inactive: dose: 100.0 mg/kg/injection, schedule: Q04DX002 (ip), vehicle: saline with Tween-80 106 % of control | dose: 200.0 mg/kg/injection, schedule: Q04DX002 (ip), vehicle: saline with Tween-80 100 % of control

CCCCCC(CN(C)C)C(=O)/C=C/c1ccc(F)cc1 (configuration not stated)
inactive: dose: 12.5 mg/kg/injection, schedule: Q01DX005 (ip), vehicle: saline with Tween-80 98 % of control | dose: 25.0 mg/kg/injection, schedule: Q01DX005 (ip), vehicle: saline with Tween-80 104 % of control | [12] 107 % of control and 118 % of control | [13] 103 % of control

O=C1C=C(N2C3C4CCC(C4)C32)C(=O)C=C1c1ccccc1 (configuration not stated)
inactive: dose: 100.0 mg/kg/injection, schedule: Q01DX001 (ip), vehicle: other 102 % of control | dose: 200.0 mg/kg/injection, schedule: Q01DX001 (ip), vehicle: other 109 % of control | dose: 400.0 mg/kg/injection, schedule: Q01DX001 (ip), vehicle: other 111 % of control

CC(CN(C)C)C(=O)/C=C/c1ccc(Cl)c(Cl)c1 (configuration not stated)
inactive: dose: 15.0 mg/kg/injection, schedule: Q01DX005 (ip), vehicle: saline with Tween-80 122 % of control | dose: 30.0 mg/kg/injection, schedule: Q01DX005 (ip), vehicle: saline with Tween-80 116 % of control | [10] 111 % of control and 117 % of control

O=C(Nc1ccc(OCCCCCOc2ccccc2)cc1)C(F)(F)F
inactive: [4] 100 % of control | [5] 116 % of control | [6] 114 % of control

CCCCOP(=O)(CCCC)OCCCC.CCCCOP(=O)(CCCC)OCCCC.CCCCOP(=O)(CCCC)OCCCC.CCCCOP(=O)(CCCC)OCCCC.O.O.[Co+2].[O-][Cl+3]([O-])([O-])O
inactive: [11] 87 % of control | [4] 100 % of control and 104 % of control | [5] 116 % of control

CCOC(=O)c1ccccc1NC(=O)c1ccccc1
inactive: [11] 93 % of control | [4] 94 % of control | [5] 103 % of control | [6] 111 % of control

COc1cc2c(cc1OC)C1=[N+](CCC1)CC2
inactive: dose: 15.0 mg/kg/injection, schedule: Q01DX005 (ip), vehicle: saline 101 % of control | dose: 30.0 mg/kg/injection, schedule: Q01DX005 (ip), vehicle: saline 99 % of control | [7] 99 % of control

Nc1c(Cl)c(Cl)c(Br)c(Cl)c1Cl
inactive: [4] 92 % of control | [5] 90 % of control

O=C(O)c1cc2ccccc2o1
inactive: dose: 25.0 mg/kg/injection, schedule: Q04DX003 (ip), vehicle: saline with Tween-80 100 % of control | dose: 50.0 mg/kg/injection, schedule: Q04DX003 (ip), vehicle: saline with Tween-80 104 % of control | [5] 95 % of control | [14] 104 % of control | [6] 95 % of control

O=C(O)C1C2CC3CC2C(C3)C1C(=O)O (configuration not stated)
inactive: [1] 100 % of control | [2] 100 % of control | [3] 99 % of control

c1ccc(CN2CCCC3CCCC32)cc1 (configuration not stated)
inactive: dose: 100.0 mg/kg/injection, schedule: Q01DX001 (ip), vehicle: saline with Tween-80 97 % of control

CC(=O)OCC1OC(n2nc(/C=C/c3ccccc3)c(=O)n(-c3ccccc3)c2=S)C(OC(C)=O)C(OC(C)=O)C1OC(C)=O (configuration not stated)
inactive: [14] 103 % of control | dose: 200.0 mg/kg/injection, schedule: Q04DX003 (ip), vehicle: saline with Tween-80 101 % of control | dose: 400.0 mg/kg/injection, schedule: Q04DX003 (ip), vehicle: saline with Tween-80 110 % of control

Cc1ccc2[nH]c(=S)n(-c3ccc(S(=O)(=O)N4CCCCC4)cc3)c(=O)c2c1
inactive: [12] 89 % of control | [13] 91 % of control | dose: 200.0 mg/kg/injection, schedule: Q01DX005 (ip), vehicle: saline with Tween-80 90 % of control

CCCCC(CCCCCC(CCCC)C1NC(C)Cc2cc(OC)c(OC)cc21)C1NC(C)Cc2cc(OC)c(OC)cc21 (configuration not stated)
inactive: dose: 6.25 mg/kg/injection, schedule: Q01DX005 (ip), vehicle: saline 99 % of control | dose: 12.5 mg/kg/injection, schedule: Q01DX005 (ip), vehicle: saline 105 % of control | dose: 25.0 mg/kg/injection, schedule: Q01DX005 (ip), vehicle: saline 90 % of control

Cc1cccc(CCl)n1
inactive: dose: 50.0 mg/kg/injection, schedule: Q01DX009 (ip), vehicle: saline 90 % of control | dose: 100.0 mg/kg/injection, schedule: Q01DX009 (ip), vehicle: saline 107 % of control | dose: 200.0 mg/kg/injection, schedule: Q01DX009 (ip), vehicle: saline 105 % of control
